Test results from patent US6355799B1, “Substituted benzene compounds, process for their preparation, and herbicidal and defoliant compositions containing them” (ISK Americas Incorporated, priority 1997, dated 2002).

Tests used:
Format in all cases: in vivo
[1] = tested on: redroot pigweed (Amaranthus retroflexus, AMARE); assay: Pre-emerge test, greenhouse herbicide activity screening; conditions: pre-emerge, 14 days after application, rating scale 0-100
Outline: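 Compounds in acetone were track-sprayed at 15-1000 g ai/ha (187 l/ha) on sandy loam pots: pre-emerge one day after seeding, post-emerge at 2-3 leaf stage with 0.25% v/v non-ionic surfactant. Phytotoxicity was rated 14 days later on a 0 (no damage) to 100 (complete death) scale.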

[2] = tested on: upland rice (Oryza sp., var. Tebonnet, RICE); assay: Post-emerge test, crop safety; conditions: post-emerge, 14 days after application, rating scale 0-100
Outline: (§1)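 Each test used a mechanized track sprayer delivering 187 l/ha of acetone solution at 15–1000 g ai/ha. Post-emerge foliage at 2–3 leaves was treated with added 0.25% v/v non-ionic surfactant and bottom-watered only. Injury was assessed on day 14, where 100 means total kill.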

[3] = tested on: field corn (Zea mays L., var. Dekalb 535, CORN); assay: Post-emerge test, crop safety; conditions: post-emerge, 14 days after application, rating scale 0-100
Outline: as §1

[4] = tested on: sicklepod (Cassia obtusifolia, CASOB); assay: Pre-emerge test, greenhouse herbicide activity screening; conditions: pre-emerge, 14 days after application, rating scale 0-100
Outline: (§2)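 Plants grown in 10 cm pots of sandy loam mix received acetone-dissolved compounds through a moving flat-fan nozzle. Doses ranged from 15 to 1000 g ai/ha. Pre-emerge pots were seeded one day earlier, post-emerge pots 8–21 days earlier. Fourteen days on, each pot was graded 0–100 for damage.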

[5] = tested on: green foxtail (Setaria viridis, SETVI); assay: as above; conditions: pre-emerge, 14 days after application, rating scale 0-100
Outline: as §2

[6] = tested on: johnsongrass (Sorghum halepense, SORHA); assay: as above; conditions: pre-emerge, 14 days after application, rating scale 0-100
Outline: as §2

[7] = tested on: barnyardgrass (Echinochloa crus-galli, ECHCG); assay: as above; conditions: pre-emerge, 14 days after application, rating scale 0-100
Outline: as §2

[8] = tested on: ivyleaf morningglory (Ipomoea hederacea, IPOHE); assay: as above; conditions: pre-emerge, 14 days after application, rating scale 0-100
Outline: as §2

[9] = tested on: lambsquarters (Chenopodium album, CHEAL); assay: as above; conditions: pre-emerge, 14 days after application, rating scale 0-100
Outline: as §2

[10] = tested on: large crabgrass (Digitaria sanguinalis, DIGSA); assay: as above; conditions: pre-emerge, 14 days after application, rating scale 0-100
Outline: as §2

[11] = tested on: velvetleaf (Abutilon theophrasti, ABUTH); assay: as above; conditions: pre-emerge, 14 days after application, rating scale 0-100
Outline: as §2

[12] = tested on: sicklepod (Cassia obtusifolia, CASOB); assay: Post-emerge test, greenhouse herbicide activity screening; conditions: post-emerge, 14 days after application, rating scale 0-100
Outline: (§3)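 Applied at 15–1000 g ai/ha from acetone in 187 l/ha spray volume. Post-emergence applications included 0.25% v/v non-ionic surfactant and reached plants sown 8–21 days before. Pre-emergence applications were incorporated by surface watering. Efficacy or crop damage was rated on a 0–100 scale after 14 days.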

[13] = tested on: green foxtail (Setaria viridis, SETVI); assay: as above; conditions: post-emerge, 14 days after application, rating scale 0-100
Outline: as §3

[14] = tested on: johnsongrass (Sorghum halepense, SORHA); assay: as above; conditions: post-emerge, 14 days after application, rating scale 0-100
Outline: as §3

[15] = tested on: barnyardgrass (Echinochloa crus-galli, ECHCG); assay: as above; conditions: post-emerge, 14 days after application, rating scale 0-100
Outline: as §3

[16] = tested on: ivyleaf morningglory (Ipomoea hederacea, IPOHE); assay: as above; conditions: post-emerge, 14 days after application, rating scale 0-100
Outline: as §3

[17] = tested on: lambsquarters (Chenopodium album, CHEAL); assay: as above; conditions: post-emerge, 14 days after application, rating scale 0-100
Outline: as §3

[18] = tested on: redroot pigweed (Amaranthus retroflexus, AMARE); assay: as above; conditions: post-emerge, 14 days after application
Outline: as §3

[19] = tested on: large crabgrass (Digitaria sanguinalis, DIGSA); assay: as above; conditions: post-emerge, 14 days after application, rating scale 0-100
Outline: as §3

[20] = tested on: velvetleaf (Abutilon theophrasti, ABUTH); assay: as above; conditions: post-emerge, 14 days after application, rating scale 0-100
Outline: as §3

[21] = tested on: upland rice (Oryza sp., var. Tebonnet, RICE); assay: Pre-emerge test, crop safety; conditions: pre-emerge, 14 days after application, rating scale 0-100
Outline: (§4)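 Fourteen days after spraying, crop and weed injury was graded visually from 0, no effect, to 100, every plant dead. Test substances were dissolved in acetone and applied at 15–1000 g ai/ha with a flat-fan nozzle. Application was either pre-emergence, one day after sowing, or post-emergence at the 2–3 leaf stage.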

[22] = tested on: field corn (Zea mays L., var. Dekalb 535, CORN); assay: Pre-emerge test, crop safety; conditions: pre-emerge, 14 days after application, rating scale 0-100
Outline: as §4

[23] = 63 g ai/ha, rating scale 0-100 (0 no damage, 100 complete death)
[24] = 250 g ai/ha, rating scale 0-100

COc1c(Cl)cc(F)c(-n2c(=O)cc(C(F)(F)F)n(C)c2=O)c1NN=CCCSC [15-14]
phytotoxicity rating AMARE ([1]; 63 g ai/ha): 100 | phytotoxicity rating AMARE ([1]; 250 g ai/ha): 100 | Post-emerge Herbicidal Activity RICE (crop damage rating) ([2]; 63 g ai/ha): 40 | Post-emerge Herbicidal Activity RICE (crop damage rating) ([2]; 250 g ai/ha): 50 | Post-emerge Herbicidal Activity CORN (crop damage rating) ([3]; 63 g ai/ha): 20 | Post-emerge Herbicidal Activity CORN (crop damage rating) ([3]; 250 g ai/ha): 65 | phytotoxicity rating CASOB ([4]; 63 g ai/ha): 90 | phytotoxicity rating CASOB ([4]; 250 g ai/ha): 100 | phytotoxicity rating SETVI ([5]; 63 g ai/ha): 100 | phytotoxicity rating SETVI ([5]; 250 g ai/ha): 100 | phytotoxicity rating SORHA ([6]; 63 g ai/ha): 100 | phytotoxicity rating SORHA ([6]; 250 g ai/ha): 100 | phytotoxicity rating ECHCG ([7]; 63 g ai/ha): 100 | phytotoxicity rating ECHCG ([7]; 250 g ai/ha): 100 | phytotoxicity rating IPOHE ([8]; 63 g ai/ha): 100 | phytotoxicity rating IPOHE ([8]; 250 g ai/ha): 100 | phytotoxicity rating CHEAL ([9]; 63 g ai/ha): 100 | phytotoxicity rating CHEAL ([9]; 250 g ai/ha): 100 | phytotoxicity rating DIGSA ([10]; 63 g ai/ha): 100 | phytotoxicity rating DIGSA ([10]; 250 g ai/ha): 100 | phytotoxicity rating ABUTH ([11]; 63 g ai/ha): 100 | phytotoxicity rating ABUTH ([11]; 250 g ai/ha): 100 | Post-emerge Herbicidal Activity CASOB (phytotoxicity rating) ([12]; 63 g ai/ha): 80 | Post-emerge Herbicidal Activity CASOB (phytotoxicity rating) ([12]; 250 g ai/ha): 100 | Post-emerge Herbicidal Activity SETVI (phytotoxicity rating) ([13]; 63 g ai/ha): 20 | Post-emerge Herbicidal Activity SETVI (phytotoxicity rating) ([13]; 250 g ai/ha): 55 | Post-emerge Herbicidal Activity SORHA (phytotoxicity rating) ([14]; 63 g ai/ha): 20 | Post-emerge Herbicidal Activity SORHA (phytotoxicity rating) ([14]; 250 g ai/ha): 70 | Post-emerge Herbicidal Activity ECHCG (phytotoxicity rating) ([15]; 63 g ai/ha): 20 | Post-emerge Herbicidal Activity ECHCG (phytotoxicity rating) ([15]; 250 g ai/ha): 90 | Post-emerge Herbicidal Activity IPOHE (phytotoxicity rating) ([16]; 63 g ai/ha): 100 | Post-emerge Herbicidal Activity IPOHE (phytotoxicity rating) ([16]; 250 g ai/ha): 100 | Post-emerge Herbicidal Activity CHEAL (phytotoxicity rating) ([17]; 63 g ai/ha): 100 | Post-emerge Herbicidal Activity CHEAL (phytotoxicity rating) ([17]; 250 g ai/ha): 100 | Post-emerge Herbicidal Activity AMARE (phytotoxicity rating) [18, 23]: 100 | Post-emerge Herbicidal Activity AMARE (phytotoxicity rating) [18, 24]: 100 | Post-emerge Herbicidal Activity DIGSA (phytotoxicity rating) ([19]; 63 g ai/ha): 20 | Post-emerge Herbicidal Activity DIGSA (phytotoxicity rating) ([19]; 250 g ai/ha): 60 | Post-emerge Herbicidal Activity ABUTH (phytotoxicity rating) ([20]; 63 g ai/ha): 100 | Post-emerge Herbicidal Activity ABUTH (phytotoxicity rating) ([20]; 250 g ai/ha): 100 | phytotoxicity rating RICE ([21]; 63 g ai/ha): 99 | phytotoxicity rating RICE ([21]; 250 g ai/ha): 100 | phytotoxicity rating CORN ([22]; 63 g ai/ha): 40 | phytotoxicity rating CORN ([22]; 250 g ai/ha): 99

COc1c(Cl)cc(F)c(-n2c(=O)cc(C(F)(F)F)n(C)c2=O)c1NN=CCc1ccccc1 [15-15]
phytotoxicity rating AMARE ([1]; 63 g ai/ha): 100 | phytotoxicity rating AMARE ([1]; 250 g ai/ha): 100 | Post-emerge Herbicidal Activity RICE (crop damage rating) ([2]; 63 g ai/ha): 70 | Post-emerge Herbicidal Activity RICE (crop damage rating) ([2]; 250 g ai/ha): 95 | Post-emerge Herbicidal Activity CORN (crop damage rating) ([3]; 63 g ai/ha): 45 | Post-emerge Herbicidal Activity CORN (crop damage rating) ([3]; 250 g ai/ha): 90 | phytotoxicity rating CASOB ([4]; 63 g ai/ha): 100 | phytotoxicity rating CASOB ([4]; 250 g ai/ha): 100 | phytotoxicity rating SETVI ([5]; 63 g ai/ha): 100 | phytotoxicity rating SETVI ([5]; 250 g ai/ha): 100 | phytotoxicity rating SORHA ([6]; 63 g ai/ha): 100 | phytotoxicity rating SORHA ([6]; 250 g ai/ha): 100 | phytotoxicity rating ECHCG ([7]; 63 g ai/ha): 100 | phytotoxicity rating ECHCG ([7]; 250 g ai/ha): 100 | phytotoxicity rating IPOHE ([8]; 63 g ai/ha): 100 | phytotoxicity rating IPOHE ([8]; 250 g ai/ha): 100 | phytotoxicity rating CHEAL ([9]; 63 g ai/ha): 100 | phytotoxicity rating CHEAL ([9]; 250 g ai/ha): 100 | phytotoxicity rating DIGSA ([10]; 63 g ai/ha): 100 | phytotoxicity rating DIGSA ([10]; 250 g ai/ha): 100 | phytotoxicity rating ABUTH ([11]; 63 g ai/ha): 100 | phytotoxicity rating ABUTH ([11]; 250 g ai/ha): 100 | Post-emerge Herbicidal Activity CASOB (phytotoxicity rating) ([12]; 63 g ai/ha): 80 | Post-emerge Herbicidal Activity CASOB (phytotoxicity rating) ([12]; 250 g ai/ha): 100 | Post-emerge Herbicidal Activity SETVI (phytotoxicity rating) ([13]; 63 g ai/ha): 40 | Post-emerge Herbicidal Activity SETVI (phytotoxicity rating) ([13]; 250 g ai/ha): 95 | Post-emerge Herbicidal Activity SORHA (phytotoxicity rating) ([14]; 63 g ai/ha): 30 | Post-emerge Herbicidal Activity SORHA (phytotoxicity rating) ([14]; 250 g ai/ha): 99 | Post-emerge Herbicidal Activity ECHCG (phytotoxicity rating) ([15]; 63 g ai/ha): 30 | Post-emerge Herbicidal Activity ECHCG (phytotoxicity rating) ([15]; 250 g ai/ha): 100 | Post-emerge Herbicidal Activity IPOHE (phytotoxicity rating) ([16]; 63 g ai/ha): 90 | Post-emerge Herbicidal Activity IPOHE (phytotoxicity rating) ([16]; 250 g ai/ha): 100 | Post-emerge Herbicidal Activity CHEAL (phytotoxicity rating) ([17]; 63 g ai/ha): 100 | Post-emerge Herbicidal Activity CHEAL (phytotoxicity rating) ([17]; 250 g ai/ha): 100 | Post-emerge Herbicidal Activity AMARE (phytotoxicity rating) [18, 23]: 100 | Post-emerge Herbicidal Activity AMARE (phytotoxicity rating) [18, 24]: 100 | Post-emerge Herbicidal Activity DIGSA (phytotoxicity rating) ([19]; 63 g ai/ha): 40 | Post-emerge Herbicidal Activity DIGSA (phytotoxicity rating) ([19]; 250 g ai/ha): 100 | Post-emerge Herbicidal Activity ABUTH (phytotoxicity rating) ([20]; 63 g ai/ha): 100 | Post-emerge Herbicidal Activity ABUTH (phytotoxicity rating) ([20]; 250 g ai/ha): 100 | phytotoxicity rating RICE ([21]; 63 g ai/ha): 95 | phytotoxicity rating RICE ([21]; 250 g ai/ha): 100 | phytotoxicity rating CORN ([22]; 63 g ai/ha): 95 | phytotoxicity rating CORN ([22]; 250 g ai/ha): 100
